Tested on: 186277-243-T-J2-PDC multi-cell spheroid viability
Experiment: Anticancer human tumor 186277-243-T-J2-PDC patient-derived colon adenocarcinoma cell line growth inhibition [PI3K]
Conditions: for IC50: curve of first compound; for viability, T/C: stronger effect = lower value
Summary of the method: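 Agents were dosed from a top concentration near clinical Cmax (otherwise 10 microM) in half-log decrements, alone or combined with PI3K inhibitors. The spheroids contain tumor cells plus endothelial (HUVEC) and MSC stroma; viability is measured.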

[1] = second compound 0.00316 µM, first compound 0.0316 µM
[2] = second compound 0.00316 µM, first compound 0.1 µM
[3] = second compound 0.00316 µM, first compound 0.316 µM
[4] = second compound 0.00316 µM, first compound 1 µM
[5] = second compound 0.00316 µM, first compound 3.16 µM
[6] = second compound 0.00316 µM, first compound 10 µM
[7] = second compound 0.01 µM, first compound 0.0316 µM
[8] = second compound 0.01 µM, first compound 0.1 µM
[9] = second compound 0.01 µM, first compound 0.316 µM
[10] = second compound 0.01 µM, first compound 1 µM
[11] = second compound 0.01 µM, first compound 3.16 µM
[12] = second compound 0.01 µM, first compound 10 µM
[13] = second compound 0.0316 µM, first compound 0.0316 µM
[14] = second compound 0.0316 µM, first compound 0.1 µM
[15] = second compound 0.0316 µM, first compound 0.316 µM
[16] = second compound 0.0316 µM, first compound 1 µM
[17] = second compound 0.0316 µM, first compound 3.16 µM
[18] = second compound 0.0316 µM, first compound 10 µM
[19] = second compound 0.1 µM, first compound 0.0316 µM
[20] = second compound 0.1 µM, first compound 0.1 µM
[21] = second compound 0.1 µM, first compound 0.316 µM
[22] = second compound 0.1 µM, first compound 1 µM
[23] = second compound 0.1 µM, first compound 3.16 µM
[24] = second compound 0.1 µM, first compound 10 µM
[25] = second compound 0.316 µM, first compound 0.0316 µM
[26] = second compound 0.316 µM, first compound 0.1 µM
[27] = second compound 0.316 µM, first compound 0.316 µM
[28] = second compound 0.316 µM, first compound 1 µM
[29] = second compound 0.316 µM, first compound 3.16 µM
[30] = second compound 0.316 µM, first compound 10 µM
[31] = second compound 1 µM, first compound 0.0316 µM
[32] = second compound 1 µM, first compound 0.1 µM
[33] = second compound 1 µM, first compound 0.316 µM
[34] = second compound 1 µM, first compound 1 µM
[35] = second compound 1 µM, first compound 3.16 µM
[36] = second compound 1 µM, first compound 10 µM
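Also: spheroids exposed to compounds for seven days before viability reading.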
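For viability, T/C in this document: 100% = DMSO vehicle control viability.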

SMILES: C[C@@H](NC(=O)c1ncnc(N)c1Cl)c1ncc(C(=O)Nc2cc(C(F)(F)F)c(Cl)cn2)s1 + COc1c(OCCCN2CCOCC2)ccc2c3n(c(=NC(=O)c4cnc(N)nc4)nc12)CCN3
- IC50 (second compound 0.00316 µM): > 10000 nM
- IC50 (second compound 0.01 µM): 8020 nM
- IC50 (second compound 0.0316 µM): 1640 nM
- IC50 (second compound 0.1 µM): < 31.6 nM
- IC50 (second compound 0.316 µM): < 31.6 nM
- IC50 (second compound 1 µM): < 31.6 nM
- viability, T/C [1]: 97.9%
- viability, T/C [2]: 94%
- viability, T/C [3]: 107%
- viability, T/C [4]: 90.4%
- viability, T/C [5]: 108%
- viability, T/C [6]: 67.7%
- viability, T/C [7]: 128%
- viability, T/C [8]: 102%
- viability, T/C [9]: 113%
- viability, T/C [10]: 96.9%
- viability, T/C [11]: 98.4%
- viability, T/C [12]: 38.7%
- viability, T/C [13]: 87.7%
- viability, T/C [14]: 82%
- viability, T/C [15]: 81.6%
- viability, T/C [16]: 68.5%
- viability, T/C [17]: 25.9%
- viability, T/C [18]: 5.51%
- viability, T/C [19]: 37.9%
- viability, T/C [20]: 30.7%
- viability, T/C [21]: 25.7%
- viability, T/C [22]: 13.2%
- viability, T/C [23]: 7.38%
- viability, T/C [24]: 4.45%
- viability, T/C [25]: 7.07%
- viability, T/C [26]: 7.19%
- viability, T/C [27]: 7.95%
- viability, T/C [28]: 6.31%
- viability, T/C [29]: 1.83%
- viability, T/C [30]: 1.23%
- viability, T/C [31]: 4.1%
- viability, T/C [32]: 2.89%
- viability, T/C [33]: 2.41%
- viability, T/C [34]: 2.48%
- viability, T/C [35]: 1.54%
- viability, T/C [36]: 0.23%

SMILES: CC1(C)CCC(Nc2ncc(C(F)(F)F)c(-c3c[nH]c4c(P(C)(C)=O)c(C#N)ccc34)n2)CN1 (stereo unspecified) + CC(Nc1ccc2c(c1)OCCn1cc(N3C(=O)OCC3C(F)F)nc1-2)C(N)=O
- IC50 (second compound 0.00316 µM): 3600 nM
- IC50 (second compound 0.01 µM): 3860 nM
- IC50 (second compound 0.0316 µM): 3520 nM
- IC50 (second compound 0.1 µM): 1650 nM
- IC50 (second compound 0.316 µM): 56.9 nM
- IC50 (second compound 1 µM): < 31.6 nM
- viability, T/C [1]: 71.6%
- viability, T/C [2]: 45.1%
- viability, T/C [3]: 52.8%
- viability, T/C [4]: 56.5%
- viability, T/C [5]: 56.6%
- viability, T/C [6]: 1.03%
- viability, T/C [7]: 69.1%
- viability, T/C [8]: 52.9%
- viability, T/C [9]: 55%
- viability, T/C [10]: 58.9%
- viability, T/C [11]: 66.3%
- viability, T/C [12]: 0.23%
- viability, T/C [13]: 78%
- viability, T/C [14]: 54.3%
- viability, T/C [15]: 51.7%
- viability, T/C [16]: 57.8%
- viability, T/C [17]: 55.3%
- viability, T/C [18]: 0.17%
- viability, T/C [19]: 72.7%
- viability, T/C [20]: 54.3%
- viability, T/C [21]: 60.4%
- viability, T/C [22]: 55.6%
- viability, T/C [23]: 43.6%
- viability, T/C [24]: 0.46%
- viability, T/C [25]: 54.2%
- viability, T/C [26]: 49.7%
- viability, T/C [27]: 33.4%
- viability, T/C [28]: 41%
- viability, T/C [29]: 22.6%
- viability, T/C [30]: 0.44%
- viability, T/C [31]: 34.5%
- viability, T/C [32]: 29.1%
- viability, T/C [33]: 22.6%
- viability, T/C [34]: 26.4%
- viability, T/C [35]: 12.2%
- viability, T/C [36]: 1.38%

SMILES: C=CC(=O)N1CCN(c2nc(=O)n(-c3c(C)ccnc3C(C)C)c3nc(-c4c(O)cccc4F)c(F)cc23)C(C)C1 (stereo unspecified) + Cc1nc(NC(=O)N2CCCC2C(N)=O)sc1-c1ccnc(C(C)(C)C(F)(F)F)c1
- IC50 (second compound 0.0316 µM): > 10000 nM
- IC50 (second compound 0.1 µM): > 10000 nM
- IC50 (second compound 0.316 µM): > 10000 nM
- IC50 (second compound 1 µM): > 10000 nM
- IC50 (second compound 3.16 µM): 605 nM
- IC50 (second compound 10 µM): < 31.6 nM
- viability, T/C [13]: 83.7%
- viability, T/C [14]: 108%
- viability, T/C [15]: 105%
- viability, T/C [16]: 88.1%
- viability, T/C [17]: 100%
- viability, T/C [18]: 94.8%
- viability, T/C [19]: 102%
- viability, T/C [20]: 99.2%
- viability, T/C [21]: 106%
- viability, T/C [22]: 95.6%
- viability, T/C [23]: 92%
- viability, T/C [24]: 103%
- viability, T/C [25]: 108%
- viability, T/C [26]: 107%
- viability, T/C [27]: 96.6%
- viability, T/C [28]: 104%
- viability, T/C [29]: 86.9%
- viability, T/C [30]: 85%
- viability, T/C [31]: 93.4%
- viability, T/C [32]: 102%
- viability, T/C [33]: 87.6%
- viability, T/C [34]: 94.5%
- viability, T/C [35]: 80%
- viability, T/C [36]: 57.5%
- viability, T/C (second compound 3.16 µM, first compound 0.0316 µM): 61.6%
- viability, T/C (second compound 3.16 µM, first compound 0.1 µM): 51.9%
- viability, T/C (second compound 3.16 µM, first compound 0.316 µM): 46.5%
- viability, T/C (second compound 3.16 µM, first compound 1 µM): 52.7%
- viability, T/C (second compound 3.16 µM, first compound 3.16 µM): 41.1%
- viability, T/C (second compound 3.16 µM, first compound 10 µM): 26.3%
- viability, T/C (second compound 10 µM, first compound 0.0316 µM): 11.1%
- viability, T/C (second compound 10 µM, first compound 0.1 µM): 12.8%
- viability, T/C (second compound 10 µM, first compound 0.316 µM): 14.5%
- viability, T/C (second compound 10 µM, first compound 1 µM): 9.26%
- viability, T/C (second compound 10 µM, first compound 3.16 µM): 10.8%
- viability, T/C (second compound 10 µM, first compound 10 µM): 13.2%

Reference: PubChem BioAssay AID1963983 (Molecular Pharmacology Branch, DTP, NCI, 2024)
